In one assay the target is Dipeptidyl peptidase 4 (Homo sapiens, UniProt P27487).
Another assay relates to Rattus norvegicus. Put plainly: Ex vivo inhibition of DPP4 in Sprague-Dawley rat plasma at 1 mg/kg, po after 1 to 6 hrs using Gly-Pro-pNA substrate. Type of assay: functional.
Another assay deals with Dipeptidyl peptidase 8 (Homo sapiens, UniProt Q6V1X1). As to the kind of experiment: Inhibition of FLAG-tagged human DPP8 expressed in 293-F cells pre-incubated for 20 mins before Gly-Pro-pNA substrate addition and measured after 90 mins. Type of assay: cell-based.
Chain of Dipeptidyl peptidase 8 (Q6V1X1 whole entry): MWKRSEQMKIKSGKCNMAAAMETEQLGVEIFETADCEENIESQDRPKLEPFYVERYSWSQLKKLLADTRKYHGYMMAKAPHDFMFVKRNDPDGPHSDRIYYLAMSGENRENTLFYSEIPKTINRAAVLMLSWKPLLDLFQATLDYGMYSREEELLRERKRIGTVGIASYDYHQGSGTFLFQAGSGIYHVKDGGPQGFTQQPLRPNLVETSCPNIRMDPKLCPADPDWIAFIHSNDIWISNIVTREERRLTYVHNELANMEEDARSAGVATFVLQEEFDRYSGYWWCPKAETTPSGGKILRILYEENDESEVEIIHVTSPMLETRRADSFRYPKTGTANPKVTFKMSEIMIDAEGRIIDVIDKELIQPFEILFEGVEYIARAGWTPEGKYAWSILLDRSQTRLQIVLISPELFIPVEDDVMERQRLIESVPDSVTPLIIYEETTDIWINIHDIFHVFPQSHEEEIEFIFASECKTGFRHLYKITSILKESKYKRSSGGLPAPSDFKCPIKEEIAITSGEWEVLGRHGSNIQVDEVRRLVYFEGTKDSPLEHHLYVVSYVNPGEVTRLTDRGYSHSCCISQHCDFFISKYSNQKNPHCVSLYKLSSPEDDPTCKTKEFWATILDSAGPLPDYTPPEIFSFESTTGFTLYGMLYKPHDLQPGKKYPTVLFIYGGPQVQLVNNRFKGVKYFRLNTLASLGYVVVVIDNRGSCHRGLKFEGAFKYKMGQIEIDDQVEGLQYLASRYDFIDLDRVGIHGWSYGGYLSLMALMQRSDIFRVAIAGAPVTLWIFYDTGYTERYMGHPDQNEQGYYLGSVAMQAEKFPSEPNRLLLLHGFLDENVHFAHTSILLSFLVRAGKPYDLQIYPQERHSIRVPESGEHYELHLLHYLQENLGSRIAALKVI

Chain of Dipeptidyl peptidase 4 (P27487 whole entry): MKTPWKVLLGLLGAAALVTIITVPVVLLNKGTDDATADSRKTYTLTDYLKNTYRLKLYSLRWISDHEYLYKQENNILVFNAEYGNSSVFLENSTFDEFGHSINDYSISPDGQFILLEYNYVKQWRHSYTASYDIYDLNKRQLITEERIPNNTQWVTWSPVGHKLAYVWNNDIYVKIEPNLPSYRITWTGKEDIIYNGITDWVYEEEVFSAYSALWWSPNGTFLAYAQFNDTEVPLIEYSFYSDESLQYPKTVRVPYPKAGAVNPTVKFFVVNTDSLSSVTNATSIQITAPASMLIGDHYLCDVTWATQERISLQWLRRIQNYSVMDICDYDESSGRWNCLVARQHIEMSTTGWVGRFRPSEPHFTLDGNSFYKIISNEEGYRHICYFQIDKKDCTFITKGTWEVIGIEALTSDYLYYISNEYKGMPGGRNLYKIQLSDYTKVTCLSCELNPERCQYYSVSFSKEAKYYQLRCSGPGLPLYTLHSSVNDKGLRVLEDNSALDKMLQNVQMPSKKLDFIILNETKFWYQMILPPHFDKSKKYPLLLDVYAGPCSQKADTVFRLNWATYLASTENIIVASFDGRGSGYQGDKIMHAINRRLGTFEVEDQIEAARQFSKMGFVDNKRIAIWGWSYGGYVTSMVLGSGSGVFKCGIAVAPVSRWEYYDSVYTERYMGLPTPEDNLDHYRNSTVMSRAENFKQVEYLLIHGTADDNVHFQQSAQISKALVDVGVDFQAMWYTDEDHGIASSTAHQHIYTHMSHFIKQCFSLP
Description for Dipeptidyl peptidase 4: Inhibition of human DPP4 purified from Caco2 cells pre-incubated for 15 mins before Gly-Pro-pNA substrate addition and measured after 60 mins

`Cc1ccc(-c2c(CN)c(CC(C)C)nc(C)c2C(=O)OC[C@H]2CC[C@H](C(=O)O)CC2)cc1` had an IC50 at Dipeptidyl peptidase 4 of 80 nM.

The compound `Cc1ccc(-c2c(COCc3ccc(C(=O)O)cc3)c(C)nc(CC(C)C)c2CN)cc1` gave an IC50 against Dipeptidyl peptidase 4 of 7.2 nM.

On Dipeptidyl peptidase 4, `NCc1c(Cc2ccccc2)nc2ccc(OCC(N)=O)cc2c1-c1ccccc1` displayed an IC50 of 720 nM.

Compound `Cc1ccc(-c2c(CN)c(CC(C)C)nc3ccc(-c4nc(C(=O)O)cs4)cc23)cc1` displayed an inhibition in vivo at 1 mg/kg in the assay on Rattus norvegicus greater than 50%. The compound also displayed an IC50 against Dipeptidyl peptidase 4 of 0.38 nM.

The compound `Cc1ccc(-c2c(-c3nc(C(N)=O)cs3)cnc(CC(C)C)c2CN)cc1` came in with an IC50 against Dipeptidyl peptidase 4 of 2.1 nM.

On Dipeptidyl peptidase 4, `Cc1ccc(-c2c(CN)c(CC(C)C)nc(C)c2C(=O)OCCCC(=O)O)cc1` yielded an IC50 of 470 nM.

Turning to `Cc1ccc(-c2c(CN)c(CC(C)C)nc3ccc(OCCCC(=O)O)cc23)cc1`, 17 nM corresponded to half-maximal inhibition on Dipeptidyl peptidase 4 (IC50).

`CC(C)Cc1nc2ccc(Br)cc2c(-c2ccccc2)c1CN` came in with an IC50 against Dipeptidyl peptidase 4 of 630 nM.

The compound `CCCCCc1nc2ccc(OCC(N)=O)cc2c(-c2ccccc2)c1CN` registered an IC50 on Dipeptidyl peptidase 4 of 540 nM.

In turn, `Cc1ccc(-c2c(CN)c(CC(C)C)nc3ccc(OCCC(=O)O)cc23)cc1` had a half-inhibitory concentration (IC50) at Dipeptidyl peptidase 4 of 29 nM.

For the compound `Cc1ccc(-c2c(CN)c(CC(C)C)nc3ccc(OCCCCCC(=O)O)cc23)cc1`, on Dipeptidyl peptidase 4, the IC50 came to 6.8 nM.

For `CC(C)Cn1c(CN)c(-c2ccccc2)c2cc(Br)ccc2c1=O`, the IC50 against Dipeptidyl peptidase 4 is 1200 nM.

At Dipeptidyl peptidase 4, `Cc1ccc(-c2c(CN)c(CC(C)C)nc(C)c2C(=O)OCc2ccccc2C(=O)O)cc1` yielded an IC50 of 29 nM.

Compound `Cc1ccc(-c2c(CN)c(CC(C)C)nc3ccc(OCCCCC(N)=O)cc23)cc1` yielded an IC50 against Dipeptidyl peptidase 4 of 13 nM.

On Dipeptidyl peptidase 4, `Cc1ccc(-c2c(CN)c(CC(C)C)nc3ccc(OCC(=O)O)cc23)cc1` had an IC50 of 140 nM.

Consider `Cc1ccc(-c2c(CN)c(CC(C)C)nc(C)c2C(=O)OCc2cccc(C(=O)O)c2)cc1`, for which the IC50 against Dipeptidyl peptidase 4 was determined as 87 nM.

The compound `CCCCc1nc2ccc(OCC(N)=O)cc2c(-c2ccccc2)c1CN` returned an IC50 against Dipeptidyl peptidase 4 of 620 nM.

As to `Cc1ccc(-c2c(CN)c(CC(C)C)nc3ccc(-c4ccc(C(=O)O)o4)cc23)cc1`, on Dipeptidyl peptidase 4, the IC50 turned out to be 28 nM.

Compound `CC(C)(C)Cc1nc2ccc(OCC(N)=O)cc2c(-c2ccccc2)c1CN` yielded an IC50 against Dipeptidyl peptidase 4 of 250 nM.

For `CC(C)Cn1c(CN)c(-c2ccccc2)c2cc(Br)cnc2c1=O`, the midpoint of inhibition on Dipeptidyl peptidase 4, the IC50, lay at 1200 nM.

Take `Cc1ccc(-c2c(CN)n(CC(C)C)c(=O)c3ccc(OCC(N)=O)cc23)cc1`: the IC50 against Dipeptidyl peptidase 4 worked out at 220 nM.

Compound `Cc1ccc(-c2c(CCc3nc(C(N)=O)cs3)c(C)nc(CC(C)C)c2CN)cc1` showed an IC50 at Dipeptidyl peptidase 4 of 8.5 nM.

`CC(C)Cc1nc2ccc(C(N)=O)cc2c(-c2ccccc2)c1CN`: at Dipeptidyl peptidase 4, the IC50 is 170 nM.

On Dipeptidyl peptidase 4, `CC(=O)c1csc(-c2cnc(CC(C)C)c(CN)c2-c2ccc(C)cc2)n1` yielded an IC50 of 8.7 nM.

On Dipeptidyl peptidase 4, `Cc1ccc(-c2c(/C=C/c3nc(C(=O)O)cs3)c(C)nc(CC(C)C)c2CN)cc1` returned an IC50 of 5.5 nM.

`Cc1ccc(-c2c(CCc3nc(C(=O)O)cs3)c(C)nc(CC(C)C)c2CN)cc1` displayed an IC50 at Dipeptidyl peptidase 4 of 2.6 nM.

In turn, `Cc1ccc(-c2c(CN)c(CC(C)C)nc3ccc(OCCCCC(=O)O)cc23)cc1` returned an IC50 against Dipeptidyl peptidase 4 of 4.6 nM.

Take `Cc1ccc(-c2c(CN)c(CC(C)C)nc(C)c2C(=O)OCc2ccc(C(=O)O)cc2)cc1`: the IC50 against Dipeptidyl peptidase 8 was greater than 100 µM; against Dipeptidyl peptidase 4, 17 nM.

At Dipeptidyl peptidase 4, `CCCc1nc2ccc(OCC(N)=O)cc2c(-c2ccccc2)c1CN` yielded a half-maximal inhibitory concentration (IC50) of 510 nM.

With `CC(C)Cn1c(CN)c(-c2ccccc2)c2cc(C(N)=O)cnc2c1=O`, the IC50 at Dipeptidyl peptidase 4 was 470 nM.

As usually defined, the IC50 is the concentration that inhibits the measured activity by half. Usually inhibition in vivo stands for the drop in the measured response relative to a control, in per cent. Low values mean a response near the control, high ones a response far below the control.
